According to US20240116986A1, “FUSION PEPTIDES CONTAINING DIMERIC ALPHA-HELICES, PEPTIDE-MOLECULARCONJUGATES CONTAINING THE SAME AND NUCLEIC ACID DELIVERY COMPOSITIONSCONTAINING THE SAME” (Artprobio Co., Ltd., priority 2022, published 2024):
Like-named read-outs stand apart in the source and are kept apart here.

Experiments:
ssDNA PolyT200 = experiment: EMSA with ssDNA PolyT200; assay type: binding
Description: The peptide-molecule conjugates of Examples 16, 17 and 18 (Glc2-AA-U2, Glc2-AA-U4, Glc2-AA-U6) were dispersed in distilled water. […] After preparing the mixtures of the peptide-molecule conjugates of Examples 16, 17 and 18 (Glc2-AA-U2, Glc2-AA-U4, Glc2-AA-U6) and the ssDNA PolyT200 (5 μL) at the nucleobase ratios described above, they were analyzed by EMSA.
The aqueous solution of the peptide-molecule conjugate of Example 19 (Glc2-AA-U8) was sonicated for 5 minutes or heated at 90° C. for 5 minutes, respectively. The heated peptide-molecule conjugate was indicated by ‘heat’.
The mixtures prepared by mixing the peptide-molecule conjugate of Example 19 (Glc2-AA-U8) aqueous solution (sonicated or heated) and ssDNA PolyT200 (5 μL) at nucleobase ratios of 20, 30 or 40 were analyzed by EMSA.

EGFP mRNA = experiment: EMSA of nanostructure formation with EGFP mRNA; assay type: binding
Description: When a nanostructure was formed through self-assembly by reacting a peptide-molecule conjugate (SAB) with a nucleic acid material (dsDNA or mRNA), agarose gel EMSA was conducted to measure their interactions, binding ratio, stability, etc.
First, the nucleic acid material of a fixed concentration (100 fmol mRNA) was reacted with the peptide-molecule conjugate (SAB) of various concentrations. Immediately before mixing with the nucleic acid material, the peptide-molecule conjugate (SAB) was sonicated for 5 minutes to prevent self-aggregation. The sonicated peptide-molecule conjugate (SAB, 5 μL) was added to the nucleic acid material ([…]) and a nanostructure was prepared by adding distilled water. The sample was prepared by snap cooling. Specifically, after heating at 70° C. for 10 minutes and snap-cooling on ice, the prepared sample was stored at room temperature. The stored sample was mixed with 2 μL of 60% glycerol. Electrophoresis was performed at 100 V for 60 minutes on 0.8% agarose gel using 1×TBE. The band was observed after staining with SYBR™ Gold nucleic acid gel stain (Invitrogen, Waltham, USA).
After sonicating the peptide-molecule conjugate (SAB-gn, n=1 to 6) aqueous solution for 5 minutes, it was immediately mixed with an EGFP mRNA (200 μL) solution. […] An […] nanostructure was prepared as follows by mixing the peptide-molecule conjugate (SAB-gn, n=1 to 6) with the EGFP mRNA. […] The EGFP mRNA and the peptide-molecule conjugate (SAB-gn, n=1 to 6) were mixed at a charge ratio (+/−) of 0, 0.008, 0.016, 0.031, 0.063, 0.125, 0.25, 0.5, 1, 2, 4, 8, 16, 32 or 50.
After incubating the mixture solution overnight and centrifuging at 16,100 g for 30 minutes, the mixture was resuspended in deionized water. After washing twice, the resulting nanostructure was analyzed by EMSA.
After incubating the mixture solution overnight and centrifuging at 16,100 g for 30 minutes, the mixture was resuspended in deionized water.
After heating the mixed solution for 10 minutes at 70° C., it was immediately snap-cooled on ice. RiboRuler Low Range RNA Ladder and RiboRuler High Range RNA Ladder (Thermo Scientific, Waltham, USA) were used on the two lanes on the left side of agarose gel in order to identify the relative locations of the EGFP mRNA bands. The bands of the RiboRuler Low Range RNA Ladder correspond to 1000, 800, 600, 400, 300, 200 and 100 bases, from top to bottom, and the bands of the RiboRuler High Range RNA Ladder correspond to 6000, 4000, 3000, 2000, 1500, 1000, 500 and 200 bases, from top to bottom. Then, the mixtures with charge ratios (+/−) of 0, 0.031, 0.063, 0.125, 0.25, 0.5, 1, 2, 4, 8 and 16 were loaded in sequence.
After heating the mixed solution for 10 minutes at 70° C., it was immediately snap-cooled on ice. RiboRuler High Range RNA Ladder (Thermo Scientific, Waltham, USA) was used on the left side of agarose gel in order to identify the relative locations of the EGFP mRNA bands. The bands of the RiboRuler High Range RNA Ladder correspond to 6000, 4000, 3000, 2000, 1500, 1000, 500 and 200 bases, from top to bottom. Then, the samples were loaded with charge ratios (+/−) of 00, 0.063, 0.125, 0.25, 0.5, 1, 2, 4, 8, 16 and 32 in sequence.

[1] = different nucleobase ratios (20-100)
[2] = 20 nM EGFP mRNA, 70° C. 10 minutes, snap-cooled

In the case of “Ac-R-GS-UELUALEUELAULE-(Ahx)2-E (adenine)E (adenine)-(Ahx)2-KLUALKUKLAULKUG-K (glucose) [R-AA-Glc-U8]”, the “nanostructure formation (EMSA)” value (ssDNA PolyT200; nucleobase ratio 60) is reported as “successfully form”.
In the case of “Ac-R-GS-UELUALEUELAULE-(Ahx)2-E (thymine)E (thymine)-(Ahx)2-KLUALKUKLAULKUG-K (glucose) [R-TT-Glc-U8]”, the “nanostructure formation (EMSA)” value (ssDNA PolyT200; nucleobase ratio 60) is reported as “successfully form”.
For “Ac-R-GS-UELUALEUELAULE-(Ahx)2-E (thymine)E (thymine)-(Ahx)2-KLUALKUKLAULKUG-K(PEG8)2 [R-TT-PEG82-U8]”, the “nanostructure formation (EMSA)” value (ssDNA PolyT200; [1]) was “successfully form”.
With “Ac-R-GS-UELUALEUELAULE-(Ahx)2-E (thymine)E (thymine)-(Ahx)2-KLUALKUKLAULKUG-K(PEG8) [R-AA-PEG8-U8]” the “nanostructure formation (EMSA)” value (ssDNA PolyT200; [1]) was “successfully form”.
In the case of “Ac-S-GS-UELUALEUELAULE-(Ahx)2-E (thymine)E (thymine)-(Ahx)2-KLUALKUKLAULKUG-K(PEG8) [S-TT-PEG8-U8]”, the “nanostructure formation (EMSA)” value (ssDNA PolyT200; [1]) is reported as “successfully form”.
In the case of “Glucose-(PEG8)-AELAALEAELAALE-(Ahx)2-K-(Ahx)2-KLAALKAKLAALKAG-(PEG8)-K(^Nglucose)-NH2 [SAB-g2]”, the “+/− (optimum charge ratio of EGFP mRNA and conjugate showing completely delayed electrophoretic mobility)” value (EGFP mRNA) is reported as greater than 30.
“Glucose-(PEG8)-AELAALEAELAALE-(Ahx)2-K-(Ahx)2-KLAALKAKLAALKAG-(PEG8)-NH2 [SAB-g1]” was tested, and the “+/− (optimum charge ratio of EGFP mRNA and conjugate showing completely delayed electrophoretic mobility)” value (EGFP mRNA) was 20.
“Glucose-GS-AELAALEAELAALE-(Ahx)2-K-(Ahx)2-KLAALKAKLAALKAG-K(^Nglucose)-NH2 [SAB-g3]” was tested, and the “+/− (optimum charge ratio of EGFP mRNA and conjugate showing completely delayed electrophoretic mobility)” value (EGFP mRNA) was 0.25, the Hill coefficient (EGFP mRNA) was 4.6 and the “half-saturation constant KSAB-g3” value (EGFP mRNA) was 0.152.
In the case of “Glucose-GS-AELAALEUELAALE-(Ahx)2-E (adenine)E (adenine)-(Ahx)2-KLAALKUKLAALKAG-K (glucose) [Glc2-AA-U2]”, the “nanostructure formation (EMSA)” value (ssDNA PolyT200; [1]) is reported as “formed successfully”.
For “Glucose-GS-AELAALEUELAALE-(Ahx)2-K-(Ahx)2-KLAALKUKLAALKAG-K(^Nglucose)-NH2 [SAB-g4]”, the “+/− (optimum charge ratio of EGFP mRNA and conjugate showing completely delayed electrophoretic mobility)” value (EGFP mRNA) was 5.
For “Glucose-GS-AELUALEAELAULE-(Ahx)2-E (adenine)E (adenine)-(Ahx)2-KLUALKAKLAULKAG-K (glucose) [Glc2-AA-U4]”, the “nanostructure formation (EMSA)” value (ssDNA PolyT200; [1]) was “formed successfully”.
In the case of “Glucose-GS-AELUALEAELAULE-(Ahx)2-K-(Ahx)2-KLUALKAKLAULKAG-K(^Nglucose)-NH2 [SAB-g5]”, the “+/− (optimum charge ratio of EGFP mRNA and conjugate showing completely delayed electrophoretic mobility)” value (EGFP mRNA) is reported as 10.
“Glucose-GS-AELUALEUELAULE-(Ahx)2-K-(Ahx)2-KLUALKUKLAULKAG-K(^Nglucose)-NH2 [SAB-g6]” was tested, and the “+/− (optimum charge ratio of EGFP mRNA and conjugate showing completely delayed electrophoretic mobility)” value (EGFP mRNA) was greater than 4.
For “Glucose-GS-UELUALEUELAULE-(Ahx)2-E (cytosine)E (cytosine)-(Ahx)2-KLUALKUKLAULKUG-K (glucose) [Glc2-CC-U8]”, the “nanostructure formation with EGFP mRNA (EMSA)” value (EGFP mRNA) was “successfully forms the nanostructure”.
“Glucose-GS-UELUALEUELAULE-(Ahx)2-E (guanine)E (guanine)-(Ahx)2-KLUALKUKLAULKUG-K (glucose) [Glc2-GG-U8]” was tested, and the “nanostructure formation with EGFP mRNA (EMSA)” value (EGFP mRNA) was “successfully forms the nanostructure”.
With “Glucose-GS-UELUALEUELAULE-(Ahx)2-E (thymine)E (thymine)-(Ahx)2-KLUALKUKLAULKUG-K (glucose) [Glc2-TT-U8]” the “nanostructure formation with EGFP mRNA (EMSA)” value (EGFP mRNA) was “successfully forms the nanostructure”.
In the case of “Glucose-SGSG-C-GG-AUAUAUAUAUA-GG-R-GG-AUAUAUAUAUA-GG-C (cyclic; disulfide) [SAB #31]”, the “EMSA bands of EGFP mRNA” value (EGFP mRNA) is reported as “bands of the EGFP mRNA weaken gradually with the increase of charge ratio”.
“Glucose-SGSG-C-GG-AUAUAUAUAUA-GG-R-GG-AUAUAUAUAUA-GG-C (linear) [#30]” was tested, and the “charge ratio (+/−) at which a complete nanostructure was formed” value (“charge ratio (+/−)” below) (EGFP mRNA) was no less than 8.
“Glycolic acid-SGSG-C-GG-AUAUAUAUAUA-GG-R-GG-AUAUAUAUAUA-GG-C (cyclic; disulfide) [cyc-R(AU)A5-Ga]” was tested, and the “charge ratio (+/−)” value (EGFP mRNA; [2]) was 16.
For “Glycolic acid-SGSG-C-GG-AUAUAUAUAUA-GG-R-GG-AUAUAUAUAUA-GG-C (linear) [lin-R(AU)A5-Ga]”, the “charge ratio (+/−)” value (EGFP mRNA; [2]) was no less than 1.0.
